Source: ChEMBL document CHEMBL4265945, “Synthesis, biological evaluation and structure-activity relationship of a novel class of PI3Kα H1047R mutant inhibitors” (Eur J Med Chem, 2018)
The source made the active and inactive calls. The calls are words filed in the database; no cut-off is given here.

Legend:
[1] = system: MCF7; experiment: cells; settings: Homo sapiens, MCF7, 72 h
Description: Antiproliferative activity against human MCF7 cells after 72 hrs by CCK-8 assay

[2] = system: HCT-116; settings: Homo sapiens, HCT-116, 72 h
[3] = biological target: Phosphatidylinositol 4,5-bisphosphate 3-kinase catalytic subunit alpha isoform (Homo sapiens, UniProt P42336, H1047R); experiment: Inhibition of PI3Kalpha H1047R mutant (unknown origin) by HTRF assay
Sequence of Phosphatidylinositol 4,5-bisphosphate 3-kinase catalytic subunit alpha isoform (Homo sapiens, UniProt P42336, H1047R) (P42336 whole entry H1047R, canonical isoform): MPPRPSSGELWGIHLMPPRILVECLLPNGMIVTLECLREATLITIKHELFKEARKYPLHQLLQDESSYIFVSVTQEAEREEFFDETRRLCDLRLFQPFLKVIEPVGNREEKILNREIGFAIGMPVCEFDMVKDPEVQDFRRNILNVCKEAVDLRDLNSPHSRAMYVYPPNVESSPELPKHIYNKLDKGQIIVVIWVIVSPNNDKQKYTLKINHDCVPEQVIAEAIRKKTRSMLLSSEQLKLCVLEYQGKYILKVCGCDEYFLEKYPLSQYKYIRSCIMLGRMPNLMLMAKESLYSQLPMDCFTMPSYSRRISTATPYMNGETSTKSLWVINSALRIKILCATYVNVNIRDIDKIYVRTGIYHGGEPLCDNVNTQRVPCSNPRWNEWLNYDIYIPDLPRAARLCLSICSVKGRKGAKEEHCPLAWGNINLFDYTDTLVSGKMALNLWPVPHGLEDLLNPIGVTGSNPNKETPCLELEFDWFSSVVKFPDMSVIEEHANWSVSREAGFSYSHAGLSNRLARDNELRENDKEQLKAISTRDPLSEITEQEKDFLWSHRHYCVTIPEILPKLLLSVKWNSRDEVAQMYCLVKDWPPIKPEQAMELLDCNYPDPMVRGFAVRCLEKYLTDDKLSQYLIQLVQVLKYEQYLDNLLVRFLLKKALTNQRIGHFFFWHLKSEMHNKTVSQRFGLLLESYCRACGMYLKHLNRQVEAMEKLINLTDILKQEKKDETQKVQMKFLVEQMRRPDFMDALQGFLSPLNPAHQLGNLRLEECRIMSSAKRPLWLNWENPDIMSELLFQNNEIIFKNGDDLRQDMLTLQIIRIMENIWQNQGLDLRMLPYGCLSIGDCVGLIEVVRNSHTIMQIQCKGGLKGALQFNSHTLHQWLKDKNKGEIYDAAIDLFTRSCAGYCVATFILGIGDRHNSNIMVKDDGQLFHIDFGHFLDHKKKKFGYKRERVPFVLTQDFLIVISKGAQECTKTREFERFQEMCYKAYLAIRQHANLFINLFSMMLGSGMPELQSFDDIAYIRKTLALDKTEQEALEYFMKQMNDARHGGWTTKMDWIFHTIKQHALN

[4] = biological target: Phosphatidylinositol 4,5-bisphosphate 3-kinase catalytic subunit alpha isoform (Homo sapiens, UniProt P42336); experiment: Inhibition of wild type PI3Kalpha (unknown origin) after 40 mins by kinase-Glo reagent based luminescence assay
Sequence of Phosphatidylinositol 4,5-bisphosphate 3-kinase catalytic subunit alpha isoform (Homo sapiens, UniProt P42336) (P42336 whole entry, canonical isoform): as the sequence (P42336 whole entry H1047R, canonical isoform) above, with R1047H counted along it

[5] = Inhibition of mTORC1 (unknown origin) after 40 mins by kinase-Glo reagent based luminescence assay; design: species or system Homo sapiens
[6] = system: HCT-116; experiment: Induction of apoptosis in human HCT116 cells assessed as early apoptotic cells at 5 uM after 24 hrs by Annexin V-FITC/PI staining based flow cytometry (reference value: 4.07%); type: functional
[7] = system: HCT-116; experiment: Induction of apoptosis in human HCT116 cells assessed as necrotic cells at 5 uM after 24 hrs by Annexin V-FITC/PI staining based flow cytometry (reference value: 0.39%); type: functional
[8] = system: HCT-116; experiment: Induction of apoptosis in human HCT116 cells assessed as late apoptotic cells at 5 uM after 24 hrs by Annexin V-FITC/PI staining based flow cytometry (reference value: 2.35%); type: functional
[9] = system: HCT-116; experiment: Induction of autophagy in human HCT116 cells assessed as autophagic vacuole formation at 5 uM after 6 hrs by MDC staining based fluorescence microscopic analysis; type: functional, cell-based
[10] = system: HCT-116; experiment: Induction of apoptosis in human HCT116 cells assessed as viable cells at 5 uM after 24 hrs by Annexin V-FITC/PI staining based flow cytometry (reference value: 93%); type: functional; settings: HCT-116, 24 h, read-out: Activity
[11] = system: HCT-116; experiment: Induction of autophagy in human HCT116 cells assessed as accumulation of GFP/mRFP-tagged LC3 accumulation in cytoplasm after 12 hrs by laser scanning confocal microscopic analysis; type: functional, cell-based
[12] = biological target: Phosphatidylinositol 4,5-bisphosphate 3-kinase catalytic subunit beta isoform (Homo sapiens, UniProt P42338); experiment: Inhibition of PI3Kbeta (unknown origin) after 40 mins by kinase-Glo reagent based luminescence assay
Sequence of Phosphatidylinositol 4,5-bisphosphate 3-kinase catalytic subunit beta isoform (P42338 whole entry, canonical isoform): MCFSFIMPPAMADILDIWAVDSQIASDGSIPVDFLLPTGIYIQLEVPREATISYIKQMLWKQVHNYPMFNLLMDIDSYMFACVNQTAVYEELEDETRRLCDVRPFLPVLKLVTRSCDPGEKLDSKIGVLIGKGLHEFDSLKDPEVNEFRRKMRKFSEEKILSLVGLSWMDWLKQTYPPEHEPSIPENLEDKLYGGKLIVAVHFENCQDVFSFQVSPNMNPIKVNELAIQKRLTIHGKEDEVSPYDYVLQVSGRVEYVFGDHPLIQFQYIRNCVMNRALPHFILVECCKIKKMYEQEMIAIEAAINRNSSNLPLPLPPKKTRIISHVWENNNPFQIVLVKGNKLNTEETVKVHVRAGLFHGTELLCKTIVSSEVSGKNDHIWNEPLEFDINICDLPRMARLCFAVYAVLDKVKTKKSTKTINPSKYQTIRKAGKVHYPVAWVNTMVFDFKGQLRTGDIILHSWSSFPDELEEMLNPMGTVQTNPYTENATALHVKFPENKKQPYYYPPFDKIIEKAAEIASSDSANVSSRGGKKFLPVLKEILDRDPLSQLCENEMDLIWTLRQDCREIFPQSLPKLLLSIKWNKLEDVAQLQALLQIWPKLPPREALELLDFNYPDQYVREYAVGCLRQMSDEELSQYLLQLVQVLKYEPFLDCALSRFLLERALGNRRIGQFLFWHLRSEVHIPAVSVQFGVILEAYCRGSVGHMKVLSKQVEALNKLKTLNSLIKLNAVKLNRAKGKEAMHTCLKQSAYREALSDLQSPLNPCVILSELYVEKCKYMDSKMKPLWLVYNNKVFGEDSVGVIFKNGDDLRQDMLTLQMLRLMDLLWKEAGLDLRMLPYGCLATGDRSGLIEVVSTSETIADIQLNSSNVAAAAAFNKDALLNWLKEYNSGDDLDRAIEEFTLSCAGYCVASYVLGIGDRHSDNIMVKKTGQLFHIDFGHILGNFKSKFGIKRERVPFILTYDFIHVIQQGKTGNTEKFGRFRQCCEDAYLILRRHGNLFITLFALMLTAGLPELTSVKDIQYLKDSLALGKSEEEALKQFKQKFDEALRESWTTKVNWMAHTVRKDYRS

[13] = biological target: T1, Phosphatidylinositol 4,5-bisphosphate 3-kinase catalytic subunit delta isoform (Homo sapiens, UniProt O00329); experiment: Inhibition of PI3Kdelta (unknown origin) after 40 mins by kinase-Glo reagent based luminescence assay
T1 sequence (O00329 whole entry): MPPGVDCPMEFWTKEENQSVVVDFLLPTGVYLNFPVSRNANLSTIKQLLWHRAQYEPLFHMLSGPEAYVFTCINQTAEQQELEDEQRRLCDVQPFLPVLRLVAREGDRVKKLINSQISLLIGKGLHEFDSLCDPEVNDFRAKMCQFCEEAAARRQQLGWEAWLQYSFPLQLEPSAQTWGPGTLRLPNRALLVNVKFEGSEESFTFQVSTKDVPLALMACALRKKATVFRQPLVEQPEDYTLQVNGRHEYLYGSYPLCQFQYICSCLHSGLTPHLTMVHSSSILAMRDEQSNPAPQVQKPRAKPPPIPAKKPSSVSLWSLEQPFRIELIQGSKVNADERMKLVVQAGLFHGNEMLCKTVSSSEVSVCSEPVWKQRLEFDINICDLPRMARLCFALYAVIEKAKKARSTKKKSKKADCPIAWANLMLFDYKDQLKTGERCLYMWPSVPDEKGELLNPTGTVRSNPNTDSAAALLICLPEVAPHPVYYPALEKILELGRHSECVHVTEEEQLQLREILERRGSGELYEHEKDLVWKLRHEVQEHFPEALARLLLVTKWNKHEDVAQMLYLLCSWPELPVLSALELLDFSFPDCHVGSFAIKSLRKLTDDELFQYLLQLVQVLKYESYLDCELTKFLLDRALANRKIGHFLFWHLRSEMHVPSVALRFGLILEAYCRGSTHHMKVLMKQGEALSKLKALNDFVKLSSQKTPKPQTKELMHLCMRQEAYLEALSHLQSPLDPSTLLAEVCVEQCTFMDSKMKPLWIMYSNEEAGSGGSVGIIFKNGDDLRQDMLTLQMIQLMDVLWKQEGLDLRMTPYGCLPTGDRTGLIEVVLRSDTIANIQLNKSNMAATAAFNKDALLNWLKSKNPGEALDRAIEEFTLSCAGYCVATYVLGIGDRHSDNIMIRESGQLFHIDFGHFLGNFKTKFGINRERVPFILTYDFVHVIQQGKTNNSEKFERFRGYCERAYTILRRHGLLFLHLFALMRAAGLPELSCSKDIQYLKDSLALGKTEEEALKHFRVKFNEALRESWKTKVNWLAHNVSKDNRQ

[14] = biological target: Phosphatidylinositol 4,5-bisphosphate 3-kinase catalytic subunit gamma isoform (Homo sapiens, UniProt P48736); experiment: Inhibition of PI3Kgamma (unknown origin) after 40 mins by kinase-Glo reagent based luminescence assay
Sequence of Phosphatidylinositol 4,5-bisphosphate 3-kinase catalytic subunit gamma isoform (P48736 whole entry, canonical isoform): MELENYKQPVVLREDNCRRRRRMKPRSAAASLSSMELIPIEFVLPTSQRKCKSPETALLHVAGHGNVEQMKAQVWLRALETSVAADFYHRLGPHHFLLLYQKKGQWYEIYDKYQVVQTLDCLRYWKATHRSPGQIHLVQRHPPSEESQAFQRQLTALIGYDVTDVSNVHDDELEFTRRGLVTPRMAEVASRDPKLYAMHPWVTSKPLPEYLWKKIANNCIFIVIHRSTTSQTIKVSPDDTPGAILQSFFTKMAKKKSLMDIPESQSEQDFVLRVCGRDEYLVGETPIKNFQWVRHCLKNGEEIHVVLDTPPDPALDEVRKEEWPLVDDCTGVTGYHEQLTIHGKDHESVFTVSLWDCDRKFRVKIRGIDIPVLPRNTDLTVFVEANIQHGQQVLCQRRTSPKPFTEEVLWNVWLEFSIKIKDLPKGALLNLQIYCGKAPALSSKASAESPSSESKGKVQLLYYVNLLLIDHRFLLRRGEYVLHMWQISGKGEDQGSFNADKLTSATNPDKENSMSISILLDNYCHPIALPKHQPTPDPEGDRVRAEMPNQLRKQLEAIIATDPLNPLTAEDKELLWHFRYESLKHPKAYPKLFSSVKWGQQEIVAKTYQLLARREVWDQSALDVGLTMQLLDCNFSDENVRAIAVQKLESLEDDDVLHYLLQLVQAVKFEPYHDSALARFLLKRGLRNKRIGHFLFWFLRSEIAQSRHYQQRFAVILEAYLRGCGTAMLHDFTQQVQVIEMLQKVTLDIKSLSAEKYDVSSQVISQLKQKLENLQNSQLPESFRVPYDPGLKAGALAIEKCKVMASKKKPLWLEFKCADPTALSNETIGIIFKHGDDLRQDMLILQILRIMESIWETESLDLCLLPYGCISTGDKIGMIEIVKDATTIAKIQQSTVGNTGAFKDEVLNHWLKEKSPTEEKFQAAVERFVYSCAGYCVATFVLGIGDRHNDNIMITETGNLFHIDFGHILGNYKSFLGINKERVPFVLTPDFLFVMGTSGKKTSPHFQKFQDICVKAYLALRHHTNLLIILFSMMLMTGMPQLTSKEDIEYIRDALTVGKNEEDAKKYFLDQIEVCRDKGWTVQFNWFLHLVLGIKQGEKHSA

| SMILES | IC50 [1] [µM] | IC50 [2] [µM] | EC50 [3] [µM] | also measured |
| --- | --- | --- | --- | --- |
| Cn1c(=O)n(-c2ccc(C(C)(C)C#N)cc2)c2c3cc(-c4cnc5ccccc5c4)ccc3ncc21 [DACTOLISIB] |  |  |  | EC50 [5]: 0.079 µM |
| O=C(Cc1ccccc1Cl)c1ccc(O)c(O)c1O | > 50 | > 50 | > 500 |  |
| O=C(Cc1ccc(Cl)cc1)c1cccc(O)c1O | > 50 | > 50 | > 500 |  |
| O=C(Cc1ccc(F)c(Cl)c1)c1ccc(O)c(O)c1O | > 50 | 47.3 | 9.7 |  |
| O=C(Cc1ccc(C(F)(F)F)cc1)c1ccc(O)c(O)c1O | > 50 | > 50 | 58.4 |  |
| Oc1ccc(-c2n[nH]cc2-c2ccc(Cl)c(Cl)c2)c(O)c1O |  |  |  | EC50 [12]: 5.7 µM; EC50 [13]: 19.1 µM; EC50 [14]: 10 µM |
| O=C(Cc1ccc(Cl)cc1)c1ccc(O)c(O)c1O | > 50 | > 50 | 69.3 | EC50 [4]: 35.2 µM |

More lines, main results first:

| IC50 [1] [µM] | IC50 [2] [µM] | EC50 [3] [µM] | SMILES | also measured |
| --- | --- | --- | --- | --- |
| 48.9 | 35.5 | 8.9 | O=C(Cc1ccc(Cl)c(Cl)c1)c1ccc(O)c(O)c1O |  |
| > 50 | > 50 | 115 | O=C(Cc1ccc(Cl)cc1)c1c(O)cc(O)cc1O | EC50 [4]: 79.3 µM |
| > 50 | > 50 | > 500 | O=C(Cc1ccccc1F)c1ccc(O)c(O)c1O |  |
| > 50 | > 50 | 196 | O=C(Cc1ccc(Cl)cc1)c1ccc(O)cc1O |  |
| > 50 | > 50 | 170 | O=C(Cc1ccc(F)cc1)c1ccc(O)c(O)c1O |  |
| 5.27 | 1.31 |  | FC(F)c1nc2ccccc2n1-c1nc(N2CCOCC2)nc(N2CCOCC2)n1 [ZSTK-474] | Activity [6]: 5.6%; Activity [7]: 0.2%; Activity [8]: 1.29%; Activity [9]: Active; viability at 5 µM [10]: 92%; Activity [11]: Dose-dependent effect |
| > 50 | > 50 | 98.2 | O=C(Cc1cccc(Cl)c1)c1ccc(O)c(O)c1O |  |
| > 50 | > 50 | 242 | COc1ccc(CC(=O)c2ccc(O)c(O)c2O)cc1OC |  |
